Measured values as given in patent US20090274676A1, “COMBINATION OF DEHYDROEPIANDROSTERONE OR DEHYDROEPIANDROSTERONE-SULFATE WITH A PDE-4 INHIBITOR FOR TREATMENT OF ASTHMA OR CHRONIC OBSTRUCTIVE PULMONARY DISEASE” (priority 2003, published 2009).
Values joined by “and” are separate entries in the source; they are usually repeats but may differ in a detail not shown here. Equal values may be shown once.

Assays:
Format in all cases: physicochemical
[1] = Emitted dose studies with dry powder inhalers; settings: for Emitted Dose (%): single runs
Protocol: DHEA-S powder was collected in Nephele tubes and assayed by HPLC. Triplicate experiments were performed at each airflow rate for each of the three dry powder inhalers tested (Rotahaler, Diskhaler and IDL's DPI devices). A Nephele tube was fitted at one end with a glass filter (Gelman Sciences, Type A/E, […]), which in turn was connected to the airflow line to collect the emitted dose of the drug from the respective dry powder inhaler being tested. A silicone adapter, with an opening to receive the mouthpiece of the respective dry powder inhaler being tested at the other end of the Nephele tube was secured. A desired airflow, of 30, 60, or 90 L/min, was achieved through the Nephele tube. Each dry powder inhaler's mouthpiece was inserted then into the silicone rubber adapter, and the airflow was continued for about four s after which the tube was removed and an end-cap screwed onto the end of each tube. The end-cap of the tube not containing the filter was removed and 10 ml of an HPLC grade water-acetonitrile solution (1:1) added to the tube, the end-cap reattached, and the tube shaken for 1-2 minutes. The end-cap then was removed from the tube and the solution was transferred to a 10 ml plastic syringe fitted with a filter (Cameo 13N Syringe Filter, Nylon, 0.22 μm). An aliquot of the solution was directly filtered into an HPLC vial for later drug assay via HPLC. […] When the micronized DHEA-S (only vial B used), was weighed for placement into the gelatin capsule or blister, there appeared to be a few aggregates of the micronized powder. […] Table 2 summarizes the results for the Rotahaler experiments at 3 different flow rates, for the Diskhaler experiments at 3 different flow rates, and of the multi-dose experiments at 3 different flow rates.

[2] = Particle size of jet-milled / spray-dried anhydrous DHEA-S (Malvern Mastersizer X, light microscope); settings: for Mean particle size: spray dried, two batches
Protocol: Approximately 1 g sample was passed through the jet mill, once, and approximately 2 g sample were passed through the jet mill twice. […] The resulting solution was sonicated for 3 minutes and appeared fully dispersed. The dispersed solutions were tested on a Malvern Mastersizer X with a small volume sampler (SVS) attachment. One sample of dispersed material was tested 5 times. The median particle size or D (v, 0.5) of unmilled material was 52.56 μm and the % RSD (relative standard deviation) was 7.61 for the 5 values. The D (v, 0.5) for a single pass through the jet mill was 3.90 μm and the % RSD was 1.27, and the D (v, 0.5) from a double pass through the jet mill 3.25 μm and the % RSD was 3.10.
The solution was spray-dried with a B-191 Mini Spray-Drier (Buchi, Flawil, Switzerland) with an inlet temperature of 55° C., outlet temperature of 40° C., at 100% aspirator, at 10% pump, nitrogen flow at 40 mbar and spray flow at 600 units. The spray-dried product was suspended in hexane and Span85 surfactant added to reduce agglomeration. The dispersions were sonicated with cooling for 3-5 minutes for complete dispersion and the dispersed solutions tested on a Malvern Mastersizer X with a Small Volume Sampler (SVS) attachment. […] Visual examination by light microscope of the dispersions of each batch confirmed that spray drying produced small respirable size particles. The mean particle size was 2.4 μm and 2.0 μm for each batch, respectively.

[3] = Aerosolization of neat DHEA-S dihydrate, Acu-Breathe single-dose inhaler, fine particle fraction; settings: 30 L/min, IDL data
Text: The single-dose Acu-Breathe device is used for evaluating DHEA-S.dihydrate. […] These blisters are actuated into the Andersen 8-stage cascade impactor at flow rates ranging from 30 to 75 L/min with a glass twin-impinger throat. Stages 1-5 of the Andersen impactor are rinsed together to obtain an estimate of the fine particle fraction. Pooling the drug collected from multiple stages into one assay make the method much more sensitive. […] Using a carrier with a larger particle size typically improves the aerosol properties of micronized drug substances.

[4] = Diskhaler (2nd study), 87.8 L/min
[5] = IDL Multi-Dose (2nd study), 87.8 L/min

## C[C@]12CC[C@H](OS(=O)(=O)[O-])CC1=CC[C@@H]1[C@@H]2CC[C@]2(C)C(=O)CC[C@@H]12.[Na+] [Anhydrous DHEA-S]
[1]; [4]
  Emitted Dose (%), Average: 59.1%
  Emitted Dose (%): 57.9% and 59.9% and 59.5%
[1]; Diskhaler, 30 L/min
  Emitted Dose (%), Average: 58.6%
  Emitted Dose (%): 53.8% and 53.4% and 68.7%
[1]; Diskhaler, 60 L/min
  Emitted Dose (%), Average: 68.2%
  Emitted Dose (%): 63.4% and 38.9% and 58.0%
[1]; Diskhaler, 87.8 L/min
  Emitted Dose (%), Average: 51.3%
  Emitted Dose (%): 65.7% and 41.6% and 46.5%
[1]; [5]
  Emitted Dose (%), Average: 84.8%
  Emitted Dose (%): 85.7% and 84.6% and 84.0%
[1]; IDL Multi-Dose, 30 L/min
  Emitted Dose (%), Average: 85.4%
  Emitted Dose (%): 78.9% and 88.2% and 89.2%
[1]; IDL Multi-Dose, 60 L/min
  Emitted Dose (%), Average: 84.0%
  Emitted Dose (%): 78.8% and 83.7% and 89.6%
[1]; IDL Multi-Dose, 87.8 L/min
  Emitted Dose (%), Average: 72.6%
  Emitted Dose (%): 71.3% and 79.0% and 67.4%
[1]; Rotahaler (2nd study), 87.8 L/min
  Emitted Dose (%), Average: 31.5%
[1]; Rotahaler, 30 L/min
  Emitted Dose (%), Average: 34.7%
[1]; Rotahaler, 60 L/min
  Emitted Dose (%), Average: 57.3%
  Emitted Dose (%): 58.1% and 68.2% and 45.7%
[1]; Rotahaler, 87.8 L/min
  Emitted Dose (%), Average: 69.7%
  Emitted Dose (%): 73.2% and 67.1% and 68.7%
[2]; double pass through the jet mill
  Median particle size D (v, 0.5): 3.25 μm
[2]; single pass through the jet mill
  Median particle size D (v, 0.5): 3.90 μm
[2]; Malvern Mastersizer X
  Mean particle size: 5.07±0.70 μm and 6.66±0.91 μm
[2]; visual examination by light microscope
  Mean particle size: 2.4 μm and 2.0 μm
[2]; unmilled material
  Median particle size D (v, 0.5): 52.56 μm
[3]
  Fine particle fraction (mass entering the impactor): no detectable mass entered the impactor
